Format in all cases: cell-based
Assay [1] has as its system IB3-1. Kind of assay: Inhibition of TNF-alpha induced NFkappaB in human IB3-1 cells assessed as reduction in IL-8 mRNA expression at 1 uM preincubated for 5 hrs followed by TNF-alpha stimulation measured after 24 hrs by RT-qPCR analysis relative to control. (In general: Quantitative PCR measures a nucleic acid by following its amplification.)
The test system of assay [2] is IB3-1. The assay can be described thus: Inhibition of TNF-alpha induced NFkappaB in human IB3-1 cells assessed as reduction in IL-8 mRNA expression at 10 uM preincubated for 5 hrs followed by TNF-alpha stimulation measured after 24 hrs by RT-qPCR analysis relative to control.
Assay [3] is described as follows: Inhibition of TNF-alpha induced NFkappaB in human IB31 cells assessed as reduction in IL-8 mRNA expression preincubated for 5 hrs followed by TNF-alpha stimulation measured after 24 hrs by RT-qPCR analysis. The conditions noted are these: IB3-1.

The structures appear in SMILES notation.

Broadly, the inhibition is the drop in the measured response relative to a control, in per cent. For `Cc1cc2c(CO)cc(=O)oc2c2c(C)coc12`, the inhibition in assay [1] turned out to be 51%; in assay [2] it was 52%.
For `Cc1cc2c(C)cc3oc(=O)cc(C)c3c2o1`, the figures for the inhibition in assay [1] and in assay [2] were 68% and 81%, respectively.
As a reminder, the IC50 is the concentration that gives 50% inhibition. For the compound `CCCc1cc(=O)oc2c1cc(CC)c1occ(C)c12`, the half-inhibitory concentration (IC50) in assay [3] stood at 19.8 µM.
`Cc1cc2c(C(C)C)cc(=O)oc2c2c(C)coc12`: in assay [3], the IC50 was 18.9 µM.
Turning to `CCc1cc2c(C)cc(=O)oc2c2c(C)coc12`, the IC50 in assay [3] was found to be 24 µM.
On to `Cc1cc(=O)oc2c1ccc1oc(CN)cc12`, for which the results for the inhibition in assay [1] and in assay [2] were 55% and 83%, respectively.
For `Cc1oc2c(C)cc3c(C)cc(=O)oc3c2c1C` the same measures were 57% and 56%.
Consider `Cc1coc2c1c(C)cc1oc(=O)cc(C)c12`, for which the inhibition in assay [1] is 73%; in assay [2] it was 52%.
Take `CCc1cc(=O)oc2c1cc(CC)c1occ(C)c12`: the half-inhibitory concentration (IC50) in assay [3] is 17.8 µM.
For the compound `CCCc1cc(=O)oc2c1cc(C)c1occ(C)c12`, the half-maximal inhibitory concentration (IC50) in assay [3] was found to be 21.9 µM.
Same read-out and setting: then `CCc1cc2c(C(C)C)cc(=O)oc2c2c(C)coc12`, with 7.4 µM.
In the case of `Cc1oc2c(c(C)cc3oc(=O)cc(C)c32)c1C`, the inhibition was found to be 66% in assay [1] and 47% in assay [2].
Turning to `CCc1cc(=O)oc2c1cc(C)c1occ(C)c12`, the concentration for half-maximal inhibition (IC50) in assay [3] was determined as 8 µM.

For the origin of these results see ChEMBL document CHEMBL4406814, “Furocoumarins as multi-target agents in the treatment of cystic fibrosis” (Eur J Med Chem, 2019).
